Measurements taken from patent US20140005163A1 (NOVARTIS AG, priority 2010, published 2014).
pIC50: −log10 of the molar value.

Assays:
mTOR = biological target: T1, mTOR (Homo sapiens, UniProt P42345); test: Biochemical assay for m-TOR by TR-FRET; settings: 8 μM ATP, 400 nM GFP-4EBP1, 0.5 nM mTOR
T1 construct: purchased Invitrogen Corporation (Carlsbad/CA, USA) PV4753
Experimental: Biochemical Assay for m-TOR by TR-FRET.
Assay components are purchased from Invitrogen Corporation (Carlsbad/CA, USA): GFP-4EBP1 (Cat. No. PV4759), Tb3+-α-p4EBP1 [pThr46] Antibody (Cat. No. PV4757), proprietary TR-FRET dilution buffer (Cat. No. PV3574), mTOR protein (Cat. No. PV4753).
Then 5 μL of ATP (8 μM final concentration) and GFP-4EBP1 (400 nM final concentration) with 5 μL mTOR proteins (0.5 nM final concentration) are incubated at rt. The standard reaction buffer for the TR-FRET mTOR assay contained 50 mM HEPES pH 7.5, 10 mM MnCl2, 50 mM NaCl, 1 mM EGTA, 1 mM DTT. Reactions were stopped with 10 μL of a mixture of EDTA containing the Tb3+-α-p4EBP1-[pT46] detection Ab (0.5 nM) in TR-FRET dilution buffer (proprietary to IVG). Plates are read 15 mins later in a Synergy2 reader using an integration time of 0.2 seconds and a delay of 0.1 seconds. […] A standard compound is used as a reference compound and included in all assay plates in the form of 16 dilution points in duplicate.

[1] = system: PKB Ser473 phosphorylation in Rat1-myr-HA-p110 alpha cells; test: Reverse protein array assay, PKB Ser473 phosphorylation in Rat1-myr-p110 alpha cells; format: cell-based; settings: 0.5 h, pAkt Ser473, 30 minutes compound incubation, read-out: p-PKB IC50
Experimental: (§1) The Rat1-myr-HA-p110 alpha, beta and delta cells were trypsinized and counted with a CASY TT cell counter (Schärfe System GmbH, Reutlingen Germany). […] The plates were incubated at 37° C. and 5% CO2 under humidified condition for at least 20 h. Compound of formula I working solutions were prepared freshly as serial 8 step dilutions (vol/vol) in DMSO on the day of the experiment. […] The final DMSO concentration was kept constant at 0.2%. cell culture medium containing 0.2% DMSO was used as vehicle treatment control. Post incubation, the cells were treated with the serial compound dilution. 50 μl of the compound medium mixture was added to the wells containing cells and 150 μl DMEM medium and incubated for 30 minutes (37° C., 5% CO2). After 30 minutes of incubation, the medium mixture was quickly removed by aspiration. […] 50 μl of the described lysis buffer mix was added to each well, followed by 10 minutes of incubation on ice.
(§2) The samples were spotted onto ZeptoMARKt PWG protein microarray chips (Zeptosens, Witterswil, Switzerland) with the piezoelectric microdispense-based, non-contact Nano-Plotter 2.1 (GeSiM, Grosserkmannsdorf, Germany). Each sample was spotted at 4 different sample concentrations (d1=100%, d2=75%, d3=50%, d4=25%) by diluting the cell lysate with the corresponding volume of lysis buffer mix. After spotting the ZeptoMARK® protein microarrays, the chips are incubated for 1 hour at 37° C. […] After 20 minutes of blocking the chips are extensively rinsed with deionized water (Milli-Q quality, 18MΩ×cm) and dried in a nitrogen air flow.
(§3) After incubation, the arrays were washed twice with 200 μl CAB1 buffer. […] The fluorescence signal was assessed with exposure times of 1, 3, 5 and 10 seconds, depending on the intensity of the signal. The resulting four images taken per array are stored as 16-bit TIF files.
(§4) The fluorescence images for each array were analyzed with the ZeptoVIEW Pro 2.0 software (Zeptosens, Witterswil, Switzerland) and the relative fluorescence intensity for each signal was calculated.

[2] = system: PKB Ser473 phosphorylation in Rat1-myr-HA-p110 delta cells; test: Reverse protein array assay, PKB Ser473 phosphorylation in Rat1-myr-p110 delta cells; format: cell-based; settings: read-out: p-PKB IC50
Experimental: as §1, §2, §3, §4

[3] = system: PKB Ser473 phosphorylation in Rat1-myr-HA-p110 beta cells; test: Reverse protein array assay, PKB Ser473 phosphorylation in Rat1-myr-p110 beta cells; format: cell-based; settings: 0.5 h, pAkt Ser473, 30 minutes incubation, read-out: p-PKB IC50
Experimental: as §1, §2, §3, §4

[4] = system: S6 Ribosomal Protein phosphorylation Ser235/236 in TSC1 null mouse embryo fibroblast (MEF) cells; test: Reverse protein array assay, S6 Ribosomal Protein phosphorylation Ser235/236 in TSC1 null MEF cells; format: cell-based; settings: 1 h, pS6 ribosomal protein Ser235/236, 60 minutes incubation, read-out: p-S6 IC50
Experimental: as §1, with “TSC1−/−” for “Rat1-myr-HA-p110 alpha, beta and delta”, “(Schirfe” for “(Schärfe”, “Working” for “Compound of formula I working”, “0.02%.” for “0.2%.”, “0.02%” for “0.2%”, “60” for “30”
The spotting of the chips follows the previous described method.

PI3K alpha = biological target: T2, PI3K alpha (Homo sapiens, UniProt P42336); test: PI3K alpha kinase assay (Kinase-Glo luminescence); format: biochemical
T2 construct: p85(iSH2) fusion partner (see partner chain) (N); His tag (C); made in house; host or cells: baculovirus; Tn5 (Trichoplusia ni) or TiniPro insect cells
Experimental: (§5) In a more preferred assay, the kinase reaction is performed in a final volume of 10 μL per well of a low volume non binding CORNING, 384 well black plate (Cat. No. #3676). The final concentrations of ATP and phosphatidyl inositol (PI) in the assay are 1 μM and 10 μg/mL respectively. The reaction is started by the addition of ATP.
(§6) The components of the assay are added per well as follows:
(§7) […] in 90% DMSO per well, in columns 1-20, 8 concentrations (1/3 and 1/3.33 serial dilution step) in single. • Low control: […] of 90% DMSO in half the wells of columns 23-24 (0.45% in final). • High control: […] of reference compound (e.g. compound of Example 7 in WO 2006/122806) in the other half of columns 23-24 (2.5 μM in final). • Standard: […] of reference compound as just mentioned diluted as the test compounds in columns 21-22 • 20 mL ‘buffer’ are prepared per assay: • 200 μL of 1M TRIS HCl pH7.5 (10 mM in final) • 60 μL of 1M MgCl2 (3 mM in final) • 500 μL of 2M NaCl (50 mM in final) • 100 μL of 10% CHAPS (0.05% in final) • 200 μL of 100 mM DTT (1 mM in final) • 18.94 mL of nanopure water • 10 mL ‘PI’ are prepared per assay: • 200 μL of 1 mg/ml L-alpha-Phosphatidylinositol (Liver Bovine, Avanti Polar Lipids Cat. No. 840042C MW=909.12) prepared in 3% OctylGlucoside (10 μg/ml in final) • 9.8 mL of ‘buffer’ • 10 mL ‘ATP’ are prepared per assay: • 6.7 μL of 3 mM stock of ATP giving a final concentration of 1 μM per well • 10 mL of ‘buffer’ • 2.5 mL of each PI3K construct are prepared per assay in ‘PI’ with the following final concentration: • 10 nM PI3K alfa EMV B1075 • 25 nM beta EMV BV949 • 10 nM delta EMV BV1060 • 150 nM gamma EMV BV950 • 5 μL of ‘PI/PI3K’ are added per well. • 5 μl ‘ATP’ are added per well to start the reaction. • The plates are then incubated at room temperature for 60 minutes (alfa, beta, delta) or 120 minutes (gamma). • The reaction is terminated by the addition of 10 μL Kinase-Glo (Promega Cat. No. #6714). • The assay plates are read after 10 minutes in Synergy 2 reader (BioTek, Vermont USA) with an integration time of 100 milliseconds and sensitivity set to 191. • Output: The High control is around 60'000 counts and the Low control is 30'000 or lower • This luminescence assay gives a useful Z′ ratio between 0.4 and 0.7
Two different constructs, BV 1052 and BV 1075, are used to generate the PI3 Kinase a proteins for compound screening.
(§8) IC50 is determined by a four parameter curve fitting routine that comes along with “excel fit”. […] Alternatively, IC50 values are calculated using idbsXLfit model 204, which is a 4 parameter logistic model.

PI3K delta = biological target: T3, PI3K delta (Homo sapiens, UniProt O00329); test: PI3K delta kinase assay (Kinase-Glo luminescence); format: biochemical
T3 construct: for the full-length p110-d subunit are generated and fused by overlapping PCR; p85(iSH2) fusion partner (see partner chain) (N); His tag (C); made in house; host or cells: baculovirus; Tn5 (Trichoplusia ni) or TiniPro insect cells
Experimental: as §5, §6, §7
PI3Kγ BV-1060 p85(iSH2)-Gly Linker-p110d(Full-Length)-C-Term his Tag
as §8

T2 sequence (P42336 with tags, fused parts or gaps limits assumed): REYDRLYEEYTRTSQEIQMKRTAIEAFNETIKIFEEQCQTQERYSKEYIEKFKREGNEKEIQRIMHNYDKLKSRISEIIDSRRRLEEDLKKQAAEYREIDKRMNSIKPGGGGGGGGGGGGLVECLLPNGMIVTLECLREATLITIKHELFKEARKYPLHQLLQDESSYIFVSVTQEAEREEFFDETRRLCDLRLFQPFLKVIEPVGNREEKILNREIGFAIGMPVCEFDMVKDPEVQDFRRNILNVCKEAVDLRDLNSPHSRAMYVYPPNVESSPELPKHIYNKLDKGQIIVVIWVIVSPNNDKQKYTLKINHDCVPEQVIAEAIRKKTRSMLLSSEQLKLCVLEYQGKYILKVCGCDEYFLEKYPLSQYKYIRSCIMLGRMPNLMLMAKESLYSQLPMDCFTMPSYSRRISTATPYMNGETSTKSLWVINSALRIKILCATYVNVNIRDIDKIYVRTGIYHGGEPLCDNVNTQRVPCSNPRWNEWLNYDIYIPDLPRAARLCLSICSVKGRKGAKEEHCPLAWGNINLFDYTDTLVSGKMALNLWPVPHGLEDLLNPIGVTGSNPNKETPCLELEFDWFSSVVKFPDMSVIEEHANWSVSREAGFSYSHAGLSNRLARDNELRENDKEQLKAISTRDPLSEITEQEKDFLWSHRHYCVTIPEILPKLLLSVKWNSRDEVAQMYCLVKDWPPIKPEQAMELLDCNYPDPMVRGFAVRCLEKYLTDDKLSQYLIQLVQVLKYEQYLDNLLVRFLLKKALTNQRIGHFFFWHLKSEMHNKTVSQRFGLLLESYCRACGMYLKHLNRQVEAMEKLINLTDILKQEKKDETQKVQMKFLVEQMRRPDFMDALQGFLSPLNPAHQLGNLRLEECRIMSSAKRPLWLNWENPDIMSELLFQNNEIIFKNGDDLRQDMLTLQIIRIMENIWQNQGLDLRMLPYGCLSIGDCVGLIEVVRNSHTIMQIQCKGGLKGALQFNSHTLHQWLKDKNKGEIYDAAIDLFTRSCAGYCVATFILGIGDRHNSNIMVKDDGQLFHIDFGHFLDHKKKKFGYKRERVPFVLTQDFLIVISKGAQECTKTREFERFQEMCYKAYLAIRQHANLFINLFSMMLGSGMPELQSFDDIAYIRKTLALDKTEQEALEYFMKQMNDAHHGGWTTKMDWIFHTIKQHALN
T1 sequence (P42345 1360-2549 limits assumed): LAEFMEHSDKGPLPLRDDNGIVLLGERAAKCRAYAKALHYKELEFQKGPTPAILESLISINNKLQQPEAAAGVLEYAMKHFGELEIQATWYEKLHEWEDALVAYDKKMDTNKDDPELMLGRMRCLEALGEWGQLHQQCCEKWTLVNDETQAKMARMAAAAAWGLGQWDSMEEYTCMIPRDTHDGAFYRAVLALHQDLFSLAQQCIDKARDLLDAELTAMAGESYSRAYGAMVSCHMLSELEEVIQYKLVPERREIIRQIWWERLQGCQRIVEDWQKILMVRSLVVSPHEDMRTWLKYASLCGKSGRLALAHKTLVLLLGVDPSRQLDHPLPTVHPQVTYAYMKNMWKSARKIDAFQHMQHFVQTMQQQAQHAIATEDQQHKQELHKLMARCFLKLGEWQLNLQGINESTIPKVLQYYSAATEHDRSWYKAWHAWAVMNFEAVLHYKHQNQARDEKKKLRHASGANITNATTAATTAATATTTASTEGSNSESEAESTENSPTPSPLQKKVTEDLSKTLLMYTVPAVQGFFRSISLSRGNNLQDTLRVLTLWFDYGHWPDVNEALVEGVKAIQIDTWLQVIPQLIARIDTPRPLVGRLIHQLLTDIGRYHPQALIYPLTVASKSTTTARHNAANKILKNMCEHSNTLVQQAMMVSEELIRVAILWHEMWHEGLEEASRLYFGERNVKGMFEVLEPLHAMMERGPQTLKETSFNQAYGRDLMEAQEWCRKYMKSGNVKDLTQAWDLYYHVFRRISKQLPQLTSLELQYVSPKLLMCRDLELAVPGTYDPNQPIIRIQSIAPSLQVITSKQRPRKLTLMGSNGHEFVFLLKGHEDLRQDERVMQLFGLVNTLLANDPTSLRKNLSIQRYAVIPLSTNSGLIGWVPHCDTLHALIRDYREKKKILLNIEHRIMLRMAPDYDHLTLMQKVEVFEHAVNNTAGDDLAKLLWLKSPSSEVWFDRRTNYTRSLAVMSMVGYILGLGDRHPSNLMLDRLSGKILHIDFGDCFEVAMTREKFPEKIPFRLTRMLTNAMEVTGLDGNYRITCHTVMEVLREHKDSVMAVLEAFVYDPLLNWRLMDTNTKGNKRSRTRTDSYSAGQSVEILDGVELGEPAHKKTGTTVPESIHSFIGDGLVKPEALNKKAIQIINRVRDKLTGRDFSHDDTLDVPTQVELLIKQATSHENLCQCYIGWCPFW
T3 sequence (O00329 with tags, fused parts or gaps limits assumed): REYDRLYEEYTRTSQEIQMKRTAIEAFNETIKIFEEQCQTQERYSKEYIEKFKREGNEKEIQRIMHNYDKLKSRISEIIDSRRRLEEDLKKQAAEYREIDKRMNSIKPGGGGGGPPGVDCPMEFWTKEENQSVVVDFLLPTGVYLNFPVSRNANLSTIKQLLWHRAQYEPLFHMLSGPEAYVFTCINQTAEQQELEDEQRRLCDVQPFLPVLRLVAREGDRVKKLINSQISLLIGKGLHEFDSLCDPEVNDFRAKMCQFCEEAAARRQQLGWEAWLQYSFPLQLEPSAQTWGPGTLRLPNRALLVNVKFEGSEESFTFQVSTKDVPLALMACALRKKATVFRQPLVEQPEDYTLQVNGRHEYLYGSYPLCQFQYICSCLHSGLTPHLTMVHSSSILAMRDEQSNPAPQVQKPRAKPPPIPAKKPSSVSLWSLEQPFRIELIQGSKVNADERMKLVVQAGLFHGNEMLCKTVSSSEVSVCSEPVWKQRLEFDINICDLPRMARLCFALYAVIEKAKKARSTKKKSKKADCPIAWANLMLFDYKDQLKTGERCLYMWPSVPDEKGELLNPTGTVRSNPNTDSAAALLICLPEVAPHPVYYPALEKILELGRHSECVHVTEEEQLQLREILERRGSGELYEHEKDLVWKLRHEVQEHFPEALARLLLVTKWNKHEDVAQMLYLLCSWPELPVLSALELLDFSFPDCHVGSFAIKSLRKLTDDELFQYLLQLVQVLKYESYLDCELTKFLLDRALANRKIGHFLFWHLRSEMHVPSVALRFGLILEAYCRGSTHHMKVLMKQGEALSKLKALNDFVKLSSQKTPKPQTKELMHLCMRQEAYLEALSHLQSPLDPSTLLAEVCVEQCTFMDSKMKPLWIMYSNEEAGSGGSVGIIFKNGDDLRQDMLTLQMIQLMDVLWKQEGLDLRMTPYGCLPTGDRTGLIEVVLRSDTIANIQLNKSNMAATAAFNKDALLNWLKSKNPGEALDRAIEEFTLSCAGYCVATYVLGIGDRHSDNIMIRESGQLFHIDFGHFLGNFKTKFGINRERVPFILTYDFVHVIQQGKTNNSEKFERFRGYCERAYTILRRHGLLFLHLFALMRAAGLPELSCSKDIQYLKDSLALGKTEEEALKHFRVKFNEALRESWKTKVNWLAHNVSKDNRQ

| Structure (SMILES) | pIC50 (mTOR) | pIC50 [1] | pIC50 [2] | pIC50 [3] | pIC50 [4] | pIC50 (PI3K alpha) | pIC50 (PI3K delta) |
| --- | --- | --- | --- | --- | --- | --- | --- |
| COc1ccc(-c2ccc3ncc4c(c3c2)n(-c2cn(C)nc2Cl)c(=O)n4C)cc1OC [1.10—] | 7.85 | – | – | – | – | – | – |
| COc1ccc(-c2ccc3ncc4c(c3c2)n(-c2cnn(C)c2C)c(=O)n4C)cc1OC [Example 1.1, 8-(3,4-Dimethoxy-phenyl)-1-(1,5-dimethyl-1H-pyrazol-4-yl)-3-methyl-1,3-dihydro-imidazo[4,5-c]quinolin-2-one] | – | 7.66 | 7.09 | 7.18 | 8.40 | – | – |
| CCn1nccc1-n1c(=O)n(C)c2cnc3ccc(-c4ccc(N(C)C)nc4)cc3c21 [Example 4.8, 8-(6-Dimethylamino-pyridin-3-yl)-1-(2-ethyl-2H-pyrazol-3-yl)-3-methyl-1,3-dihydro-imidazo[4,5-c]quinolin-2-one] | 6.60 | 6.80 | 6.56 | 6.81 | – | – | – |
| Cc1nn(C)cc1-n1c(=O)n(C)c2cnc3ccc(-c4ccc(-n5ccnc5C)nc4)cc3c21 [Example 78, 1-(1,3-Dimethyl-1H-pyrazol-4-yl)-3-methyl-8-[6-(2-methyl-imidazol-1-yl)-pyridin-3-yl]-1,3-dihydro-imidazo[4,5-c]quinolin-2-one] | – | 6.58 | 6.02 | 6.41 | – | – | – |
| CCOc1cc(-c2ccc3ncc4c(c3c2)n(-c2cn(C)nc2C)c(=O)n4C)cnc1OC [Example 94, 1-(1,3-Dimethyl-1H-pyrazol-4-yl)-8-(5-ethoxy-6-methoxy-pyridin-3-yl)-3-methyl-1,3-dihydro-imidazo[4,5-c]quinolin-2-one] | – | > 8.30 | 8.05 | 7.96 | – | – | – |
| Cc1nn(CC(=O)N2CCN(C)CC2)cc1-n1c(=O)n(C)c2cnc3ccc(-c4ccccc4)cc3c21 [Example 134, 3-Methyl-1-{3-methyl-1-[2-(4-methyl-piperazin-1-yl)-2-oxo-ethyl]-1H-pyrazol-4-yl}-8-phenyl-1,3-dihydro-imidazo[4,5-c]quinolin-2-one] | 7.00 | – | – | – | – | 6.27 | – |
| COc1cc(-c2ccc3ncc4c(c3c2)n(-c2cn(C)nc2C)c(=O)n4C)cnc1OC [Example 204, 8-(5,6-Dimethoxy-pyridin-3-yl)-1-(1,3-dimethyl-1H-pyrazol-4-yl)-3-methyl-1,3-dihydro-imidazo[4,5-c]quinolin-2-one] | – | 8.10 | 8.05 | 7.92 | > 9.30 | – | – |
| CO[C@H]1CCN(c2ccc(-c3ccc4ncc5c(c4c3)n(-c3cn(C)nc3C)c(=O)n5C)cn2)C1 [Example 213.2, 1-(1,3-Dimethyl-1H-pyrazol-4-yl)-8-[6-((S)-3-methoxy-pyrrolidin-1-yl)-pyridin-3-yl]-3-methyl-1,3-dihydro-imidazo[4,5-c]quinolin-2-one] | 6.91 | 7.24 | – | 6.92 | – | 6.66 | 6.68 |
| Cc1nn(C)cc1-n1c(=O)n(C)c2cnc3ccc(-c4ccc(NC5CCOCC5)nc4)cc3c21 [Example 214, 1-(1,3-Dimethyl-1H-pyrazol-4-yl)-3-methyl-8-[6-(tetrahydro-pyran-4-ylamino)-pyridin-3-yl]-1,3-dihydro-imidazo[4,5-c]quinolin-2-one] | – | 6.55 | – | 6.22 | 7.34 | – | – |
| Cc1nn(CC(=O)N2CCN(C)CC2)cc1-n1c(=O)n(C)c2cnc3ccc(-c4cnc(N5CCCC5)nc4)cc3c21 [Example 247.5, 3-Methyl-1-{3-methyl-1-[2-(4-methyl-piperazin-1-yl)-2-oxo-ethyl]-1H-pyrazol-4-yl}-8-(2-pyrrolidin-1-yl-pyrimidin-5-yl)-1,3-dihydro-imidazo[4,5-c]quinolin-2-one] | 7.00 | 6.08 | – | – | 6.70 | 6.01 | – |
